Each structure is given as a SMILES string.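 How tested: cells in 96-well plates exposed to compound for 48 hours at five concentrations. GI50 = concentration required for 50% inhibition of growth.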 Active and inactive are the calls of the source. Rule as the data show it: active = GI50 up to about 1.1 µM and inactive = higher.

We go through 25 compounds from ChEMBL document CHEMBL1201862, “PubChem BioAssay data set” (2004).

Experiment in all cases: growth of human tumour cells (NCI), 48 h
The test system of assay [1] is DMS-273.
Assay [2] has as its system HOP-18.
Assay [3] deals with M19-MEL.
In assay [4] the test system is DLD-1.
In assay [5] the test system is DMS-114.
Assay [6] concerns RXF 631.
For assay [7], the system named is SNB-78.
Assay [8] deals with LXFL 529.
The subject of assay [9] is XF498.

On to `c1ccc(-c2csc3ncn4cnnc4c23)cc1`, for which the GI50 in [1] is 72.8 µM (inactive); in assay [2], 52 µM (inactive); in assay [3], > 100 µM (inactive); in assay [4] it was 82.2 µM (inactive); in [5], 57.9 µM (inactive); in [6], 95.7 µM (inactive). The GI50 is > 100 µM (inactive) in assay [7] and 92.9 µM (inactive) in assay [8].
Regarding `CCCCCCCCCC(=O)CC(=O)c1c(O)cccc1O`, the GI50 is 20.8 µM (inactive) in assay [1]; 25.4 µM (inactive) in assay [2]; 38.5 µM (inactive) in assay [3]; 39.5 µM (inactive) in [4]; 15.3 µM (inactive) in [9]; 30.1 µM (inactive) in [5]. The GI50 is 40 µM (inactive) in assay [7] and 38.8 µM (inactive) in assay [8].
On to `CN(N=O)C(=O)NC(CCCCNC(=O)OCc1ccccc1)C(=O)OCc1ccccc1` (stereo not drawn), for which the GI50 in [1] was 33.2 µM (inactive); in [3], 27.1 µM (inactive); in [4], 33.8 µM (inactive); in assay [9], 13.2 µM (inactive); in [5] it was 29 µM (inactive); in assay [6] it was 19.9 µM (inactive). The GI50 in assay [7] is 26.7 µM (inactive); in assay [8], 28.5 µM (inactive).
For `COc1nc2c(nc(N)n2C2OC(CO)C(O)C(O)C2O)c(=O)n1C` (stereo not drawn), the GI50 in assay [2] is > 100 µM (inactive); in assay [3] it was > 100 µM (inactive); in assay [4] it was > 100 µM (inactive); in assay [9], 75.3 µM (inactive); in [5] it was > 100 µM (inactive); in [6] it was > 100 µM (inactive). For the same compound, the GI50 in assay [7] and in assay [8] was > 100 µM (inactive) throughout.
On to `C=C1C(=O)OC2/C=C(\COC(C)=O)CCC(OC(C)=O)C3=CC(OC3=O)C12` (stereo not drawn), for which the GI50 in assay [1] is 6.81 µM (inactive); in assay [4], 2.33 µM (inactive); in assay [9] it was 2.39 µM (inactive); in assay [5], 1.47 µM (inactive); in assay [6] it was 8.13 µM (inactive); in [7], 2.67 µM (inactive). Also, in assay [8], the GI50 is 1.67 µM (inactive).
For the compound `O=C(/C=C/c1ccc(OCC(=O)N2CCN(c3ccccc3)CC2)cc1)c1ccccc1`, the GI50 in assay [1] is 2.99 µM (inactive); in [2] it was > 50 µM (inactive); in assay [3] it was 11.3 µM (inactive); in assay [4], 7.31 µM (inactive); in assay [7] it was > 44.5 µM (inactive); in [8], 19.9 µM (inactive).
On to `Oc1c(-c2ccccc2)nc2ccccn12`, for which the GI50 in assay [1], in [3], in [4], in assay [9], in [5] and in assay [7] was > 100 µM (inactive) each time. The GI50 in assay [8] was > 100 µM (inactive).
For `O=C1O[C@@H](c2ccc3c(c2)OCO3)C2C(=O)O[C@@H](c3ccc4c(c3)OCO4)C12` (stereo partly drawn), the GI50 in assay [1] was > 100 µM (inactive); in assay [2], > 100 µM (inactive); in [3], > 100 µM (inactive); in assay [9], 25.8 µM (inactive); in [5] it was > 100 µM (inactive); in assay [6], > 100 µM (inactive). Further, the GI50 in assay [7] was > 100 µM (inactive).
Consider `Cc1cccc(NC(=O)CSc2nnc(-c3ccc(/N=C\c4ccc(Cl)cc4)cc3)o2)c1`, for which the GI50 in [1], in assay [2], in assay [3], in assay [9], in assay [5] and in assay [7] was > 100 µM (inactive) throughout. In assay [8], the GI50 was > 100 µM (inactive).
Regarding `Nc1nccc2c1ncn2C1C=C(CO)C(O)C1O` (stereo not drawn), the GI50 was 25.6 µM (inactive) in assay [1]; > 96.6 µM (inactive) in [2]; 62.5 µM (inactive) in [3]; 63.4 µM (inactive) in assay [4]; > 46 µM (inactive) in assay [9]; 13.9 µM (inactive) in [5]. The GI50 in assay [6] is 83.6 µM (inactive); in assay [7], > 100 µM (inactive); in assay [8], > 89.1 µM (inactive).
As for `CNC(=S)/N=C(\N)N(C)C`, the GI50 in [1], in assay [2], in [3], in [4], in assay [9] and in assay [5] was > 100 µM (inactive) each time. The GI50 in [7] and in assay [8] was > 100 µM (inactive) in each case.
On to `CC(C)C(=O)N1Cc2cc(Cl)cc(Cl)c2OC(=O)c2ccccc21`, for which the GI50 in assay [1] is 38.7 µM (inactive); in assay [2] it was 25.6 µM (inactive); in assay [4], 29.9 µM (inactive); in assay [5], 30.1 µM (inactive); in [6], 40.3 µM (inactive); in assay [7] it was 67.9 µM (inactive). Moreover, the GI50 in [8] is 18.3 µM (inactive).
As to `CCOC(=O)NC(=O)c1cn(CCCCCCCCCCC(=O)NCCCN2CCN(CCCNC(=O)CCCCCCCCCCn3cc(C(=O)NC(=O)OCC)c(=O)[nH]c3=O)CC2)c(=O)[nH]c1=O`, the GI50 in assay [1], in assay [2], in assay [3], in assay [4], in [9] and in assay [5] was > 100 µM (inactive) throughout. For the same compound, the GI50 in assay [7] and in [8] was > 100 µM (inactive) in each case.
For `C/C(=N\NC(N)=S)c1ccc(/C(C)=N/NC(N)=S)cc1`, the GI50 in assay [2], in assay [3], in assay [4], in assay [9], in assay [5] and in assay [6] was > 100 µM (inactive) each time. Moreover, the GI50 in assay [8] is > 100 µM (inactive).
On to `COc1ccccc1NC(=O)C1=C(C)NC(C)=C(C(=O)Nc2ccccc2OC)C1c1cccc2c1OCO2`, for which the GI50 in [1] is > 100 µM (inactive); in assay [2] it was > 100 µM (inactive); in assay [3] it was > 100 µM (inactive); in assay [4] it was > 100 µM (inactive); in assay [5] it was 77.3 µM (inactive); in [6], > 100 µM (inactive). Also, the GI50 in [8] was 69.2 µM (inactive).
Consider `Cc1c(C)c(CC(=O)N2CC2)c(C)c(C)c1CC(=O)N1CC1`, for which the GI50 in assay [1] was 2.18 µM (inactive); in assay [2], 28.4 µM (inactive); in [3] it was 12.9 µM (inactive); in [4] it was 17.5 µM (inactive); in assay [5], 11.5 µM (inactive); in [7] it was 13.7 µM (inactive). The GI50 in assay [8] was 14.1 µM (inactive).
As for `COC(=O)C(CCC1(C)OCCO1)=[N+]=[N-]`, the GI50 in assay [1], in [2], in assay [4], in [9], in assay [5] and in assay [6] was > 100 µM (inactive) throughout. Moreover, the GI50 in assay [7] and in assay [8] was > 100 µM (inactive) throughout.
Take `COc1c(OC(C)=O)c(OC(C)=O)cc2c1-c1ccc(SC)c(=O)cc1C(NC(C)=O)CC2` (stereo not drawn): the GI50 in assay [1] was 0.895 µM (active); in assay [2] it was > 100 µM (inactive); in assay [3], 0.57 µM (active); in assay [4], 0.908 µM (active); in [9] it was 1.04 µM (active); in assay [7], 0.287 µM (active). Also, the GI50 in assay [8] was 0.368 µM (active).
Take `CCOC(=O)C1=C(C)N(NC(=O)Nc2ccccc2)C(=O)C1=P(c1ccccc1)(c1ccccc1)c1ccccc1`: the GI50 is 40.6 µM (inactive) in assay [1]; 58.1 µM (inactive) in assay [2]; 32.6 µM (inactive) in assay [3]; 33.6 µM (inactive) in [4]; 31.8 µM (inactive) in assay [9]; 32.2 µM (inactive) in assay [5]. Moreover, the GI50 in assay [8] is 35.2 µM (inactive).
Regarding `CCOC(=O)N(c1ccccc1)N(CC)C(=O)/C(C)=N/Nc1ccc([N+](=O)[O-])cc1`, the GI50 in assay [1] is 15.6 µM (inactive); in assay [2], 19.7 µM (inactive); in assay [3], 17.5 µM (inactive); in [4] it was 15.4 µM (inactive); in [9], 17.9 µM (inactive); in [5], 17.9 µM (inactive). For the same compound, the GI50 in [7] was 20.8 µM (inactive); in assay [8], 16.6 µM (inactive).
As to `Nc1ccc(/N=N/c2ccc(-c3ccc(/N=N/c4c(S(=O)(=O)O)cc5cc(S(=O)(=O)O)c(/N=N/c6ccc([N+](=O)[O-])cc6)c(N)c5c4O)cc3)cc2)c2cc(S(=O)(=O)O)ccc12`, the GI50 in [1], in assay [3], in [4], in assay [9], in assay [7] and in [8] was > 100 µM (inactive) each time.
Regarding `c1cc(C2O[C@H]3CCCN3[C@@H]2c2ccncc2)ccn1` (stereo partly drawn), the GI50 in assay [1], in [3], in assay [4], in assay [9], in [5] and in [7] was > 100 µM (inactive) throughout. In addition, the GI50 in [8] is > 100 µM (inactive).
Consider `COc1ccc(C(O)c2cc(OC)c(OC)c(OC)c2)cc1` (stereo not drawn), for which the GI50 was 4.21 µM (inactive) in [1]; 39 µM (inactive) in [2]; 21 µM (inactive) in assay [3]; 38.2 µM (inactive) in [4]; 6.84 µM (inactive) in assay [5]; 30.1 µM (inactive) in [6]. Moreover, the results for the GI50 in assay [7] and in assay [8] were 44.4 µM (inactive) and 40.9 µM (inactive), respectively.
Regarding `COc1cc(/C=C(\C#N)C(N)=C(C#N)C#N)cc(O)c1O`, the GI50 is > 100 µM (inactive) in assay [1]; > 100 µM (inactive) in assay [3]; > 100 µM (inactive) in assay [4]; > 100 µM (inactive) in assay [9]; 47 µM (inactive) in [5]; > 100 µM (inactive) in assay [7]. Also, the GI50 in assay [8] was > 100 µM (inactive).
Turning to `COc1cc([C@@H]2c3cc4c(c(O)c3C[C@H]3COC(=O)[C@@H]32)OCO4)cc(OC)c1O`, the GI50 was < 0.02 µM (active) in [1]; < 0.02 µM (active) in assay [2]; 0.237 µM (active) in assay [3]; < 0.02 µM (active) in assay [5]; < 0.02 µM (active) in assay [7]; 0.00257 µM (active) in assay [8].
